In ChEMBL document CHEMBL2412992, “Fluorescent ligands for adenosine receptors” (Bioorg Med Chem Lett, 2013):
The source made the active and inactive calls. The rule behind the calls is not given here.

Experiments:
[1] = target: T1, Adenosine receptor A1 (Homo sapiens) (UniProt P30542); test: Displacement of [3H]R-PIA from human adenosine A1 receptor expressed in CHO cells at 10 uM after 60 mins by […] analysis relative to control; type: cell-based
T1 sequence (whole entry): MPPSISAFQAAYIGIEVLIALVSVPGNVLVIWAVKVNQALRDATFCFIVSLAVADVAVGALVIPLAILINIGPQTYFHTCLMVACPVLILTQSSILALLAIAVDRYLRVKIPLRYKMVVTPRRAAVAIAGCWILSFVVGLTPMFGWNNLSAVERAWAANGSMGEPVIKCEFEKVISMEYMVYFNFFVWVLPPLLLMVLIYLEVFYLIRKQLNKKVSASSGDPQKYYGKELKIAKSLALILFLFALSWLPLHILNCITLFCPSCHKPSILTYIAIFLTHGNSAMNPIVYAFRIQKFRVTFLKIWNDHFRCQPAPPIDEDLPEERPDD

[2] = target: T2, Adenosine receptor A3 (Homo sapiens, UniProt P0DMS8); type: cell-based, CHO
T2 sequence (P0DMS8 whole entry): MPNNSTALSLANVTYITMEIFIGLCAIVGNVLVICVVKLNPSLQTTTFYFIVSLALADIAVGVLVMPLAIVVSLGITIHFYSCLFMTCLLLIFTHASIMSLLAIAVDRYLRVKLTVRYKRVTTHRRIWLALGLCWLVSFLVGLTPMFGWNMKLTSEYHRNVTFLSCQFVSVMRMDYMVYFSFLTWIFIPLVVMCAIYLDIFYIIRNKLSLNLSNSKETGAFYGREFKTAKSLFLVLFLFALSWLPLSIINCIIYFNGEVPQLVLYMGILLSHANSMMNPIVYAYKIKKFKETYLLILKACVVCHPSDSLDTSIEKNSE

[3] = target: T3, Adenosine receptor A2a (Homo sapiens, UniProt P29274); test: Displacement of [3H]CGS21680 from human adenosine A2A receptor expressed in HEK293 cells after 60 mins by […] analysis; type: cell-based
[4] = target: T1, Adenosine receptor A1 (Homo sapiens); test: Displacement of [3H]DPCPX from human adenosine A1 receptor expressed in CHO cells up to 0.1 mM after 2 hrs by scintillation counting analysis; type: cell-based
[5] = target: T4, Adenosine receptor A1 (Homo sapiens, UniProt P30542); test: Antagonist activity at human adenosine A1 receptor expressed in CHO cells coexpressing cAMP response element assessed as inhibition of agonist-induced response by SPAP reporter gene assay in presence of forskolin; type: functional, cell-based
T4 sequence (P30542 whole entry): T1 sequence (whole entry)

[6] = target: T2, Adenosine receptor A3; type: cell-based, CHO; remark: listed apart in the source
[7] = target: T3, Adenosine receptor A2a; test: Displacement of [3H]CGS21680 from adenosine A2A receptor in human striatal membranes; type: cell membranes, Striatum, Membrane
[8] = target: T4, Adenosine receptor A1; test: Displacement of [3H]DPCPX from adenosine A1 receptor in human cortical membranes; type: cell membranes

T3 sequence (P29274 whole entry): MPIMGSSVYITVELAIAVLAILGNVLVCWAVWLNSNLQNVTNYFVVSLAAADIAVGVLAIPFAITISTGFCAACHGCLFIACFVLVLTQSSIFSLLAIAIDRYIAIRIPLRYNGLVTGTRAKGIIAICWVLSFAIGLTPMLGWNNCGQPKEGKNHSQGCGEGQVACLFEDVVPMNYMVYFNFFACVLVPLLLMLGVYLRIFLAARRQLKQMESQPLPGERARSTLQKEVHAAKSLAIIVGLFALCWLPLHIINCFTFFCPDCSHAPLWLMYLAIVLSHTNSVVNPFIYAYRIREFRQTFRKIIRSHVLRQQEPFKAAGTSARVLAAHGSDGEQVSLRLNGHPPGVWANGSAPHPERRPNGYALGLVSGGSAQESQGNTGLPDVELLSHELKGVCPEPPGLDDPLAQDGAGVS

Cn1cc2c(nc(NCCCCCNC(=S)Nc3ccc(C4c5ccc(O)cc5OC5=CC(=O)C=CC54)c(C(=O)O)c3)n3nc(-c4ccco4)nc23)n1 (centres undefined)
inhibition [1]: 9% | Ki [2]: 5620 nM | Ki [3]: 1780 nM

Cn1cc2c(nc(NCCCCNC(=S)Nc3ccc(C4c5ccc(O)cc5OC5=CC(=O)C=CC54)c(C(=O)O)c3)n3nc(-c4ccco4)nc23)n1 (centres undefined)
inhibition [1]: 7% | Ki [2]: 724 nM | Ki [3]: 468 nM

CCNC(=O)[C@H]1O[C@@H](n2cnc3c(NCCCCNC(=O)CCCCCCCNS(=O)(=O)c4cccc5c(N(C)C)cccc45)ncnc32)[C@H](O)[C@@H]1O
Activity [4]: inactive

CCNC(=O)[C@H]1O[C@@H](n2cnc3c(NCCNC(=O)COc4ccc(/C=C/C5=[N+]6C(=Cc7ccc(-c8cccs8)n7[B-]6(F)F)C=C5)cc4)ncnc32)[C@H](O)[C@@H]1O
Kd [5]: 14.5 nM

CCNC(=O)[C@H]1O[C@@H](n2cnc3c(NCCCNC(=O)COc4ccc(/C=C/C5=[N+]6C(=Cc7ccc(-c8cccs8)n7[B-]6(F)F)C=C5)cc4)ncnc32)[C@H](O)[C@@H]1O
Kd [5]: 16.2 nM

CCNC(=O)[C@H]1O[C@@H](n2cnc3c(NCCCCNC(=O)CCCCCN4/C(=C/C=C/C=C/C5=[N+](CC)c6cc(S(=O)(=O)O)ccc6C5(C)C)C(C)(C)c5cc(S(=O)(=O)[O-])ccc54)ncnc32)[C@H](O)[C@@H]1O
Activity [4]: inactive

CCNC(=O)[C@H]1O[C@@H](n2cnc3c(NCCCCCCCCCCCNC(=O)COc4ccc(/C=C/C5=[N+]6C(=Cc7ccc(-c8cccs8)n7[B-]6(F)F)C=C5)cc4)ncnc32)[C@H](O)[C@@H]1O
Kd [5]: 12.9 nM

CCNC(=O)[C@H]1O[C@@H](n2cnc3c(NCCCCNc4ccc([N+](=O)[O-])c5nonc45)ncnc32)[C@H](O)[C@@H]1O
Ki [6]: 389 nM | Ki [7]: > 10000 nM | Ki [8]: > 10000 nM

CCCn1c(=O)c2[nH]c(-c3ccc(OCC(=O)NCCNC(=O)CCCCCCC(=O)NCCNC(=O)CCC4=[N+]5C(=Cc6c(C)cc(C)n6[B-]5(F)F)C=C4)cc3)nc2n(CCC)c1=O
Activity [4]: inactive

CCNC(=O)[C@H]1O[C@@H](n2cnc3c(NCCOCCOCCNC(=O)COc4ccc(/C=C/C5=[N+]6C(=Cc7ccc(-c8cccs8)n7[B-]6(F)F)C=C5)cc4)ncnc32)[C@H](O)[C@@H]1O
Kd [5]: 17.8 nM

CCNC(=O)[C@H]1O[C@@H](n2cnc3c(NCCNc4ccc([N+](=O)[O-])c5nonc45)ncnc32)[C@H](O)[C@@H]1O
Ki [6]: 56.2 nM | Ki [7]: 6760 nM | Ki [8]: > 10000 nM

CCNC(=O)[C@H]1O[C@@H](n2cnc3c(NCCCCCCCCCCNc4ccc([N+](=O)[O-])c5nonc45)ncnc32)[C@H](O)[C@@H]1O
Ki [6]: 28.2 nM | Ki [7]: 6170 nM | Ki [8]: 6460 nM

CCNC(=O)[C@H]1O[C@@H](n2cnc3c(NCCCCNC(=O)CCC4=[N+]5C(=Cc6c(C)cc(C)n6[B-]5(F)F)C=C4)ncnc32)[C@H](O)[C@@H]1O
Activity [4]: inactive

CCNC(=O)[C@H]1O[C@@H](n2cnc3c(NCCCCNC(=O)COc4ccc(/C=C/C5=[N+]6C(=Cc7ccc(-c8cccs8)n7[B-]6(F)F)C=C5)cc4)ncnc32)[C@H](O)[C@@H]1O
Kd [5]: 16.2 nM

Cn1cc2c(nc(NCCCNC(=S)Nc3ccc(C4c5ccc(O)cc5OC5=CC(=O)C=CC54)c(C(=O)O)c3)n3nc(-c4ccco4)nc23)n1 (centres undefined)
inhibition [1]: 5% | Ki [2]: 2400 nM | Ki [3]: 2510 nM

CCNC(=O)[C@H]1O[C@@H](n2cnc3c(NCCCCCCCCNc4ccc([N+](=O)[O-])c5nonc45)ncnc32)[C@H](O)[C@@H]1O
Ki [6]: 7.41 nM | Ki [7]: 5130 nM | Ki [8]: 3550 nM

CCNC(=O)[C@H]1O[C@@H](n2cnc3c(NCCCCCCNc4ccc([N+](=O)[O-])c5nonc45)ncnc32)[C@H](O)[C@@H]1O
Ki [6]: 24 nM | Ki [7]: 6170 nM | Ki [8]: > 10000 nM

CCNC(=O)[C@H]1O[C@@H](n2cnc3c(NCCCCCCCCNC(=O)COc4ccc(/C=C/C5=[N+]6C(=Cc7ccc(-c8cccs8)n7[B-]6(F)F)C=C5)cc4)ncnc32)[C@H](O)[C@@H]1O
Kd [5]: 14.1 nM
